Source: article PMC9867241, “Antioxidant and Cytotoxic Activity of New Polyphenolic Derivatives of Quinazolin-4(3H)-one: Synthesis and In Vitro Activities Evaluation” (Pharmaceutics, 2022)
≈ marks a conversion by molar mass, not a printed value. Values belong to the compound of their own block, whether it stands above or below them.

How the values were obtained:
[1] = NO˙ radical scavenging assay (Griess reaction); settings: PBS pH 7.4, sodium nitroprusside
Method: The scavenging of the NO˙ radical was performed by applying previously reported protocols. The in vitro protocol describes the decomposition of sodium nitroprusside in phosphate buffered saline (PBS) at pH = 7.4. The NO˙ radicals would be involved in a Griess reaction if they were not captured by the tested compounds. This reaction results from the formation of an azo dye, with maximum absorption at 546 nm. This azo dye is formed from sulfanilic acid and naphthyl ethylenediamine dichloride.

[2] = Cu^2+ chelation assay (murexide competition)
Description: With murexide as a chromophoric chelator, we performed the protocol followed for the evaluation of Cu^2+ chelating activities of the compounds using an adaptation of the method presented by Cesari et al. and Wu et al.. Using Equation (6), we calculated the copper chelation capacities of the 5a–d and 6a–d compounds:(6) copper chelation (%)=(A485/A520)control−(A485/A520)sample/(A485/A520)control×100
The evaluation of the Cu^2+ chelation activity of compounds was made based on the competition for Cu^2+ with murexide. The chelating activity of compounds for the cupric ions found in the current assay is significant for the pyrogallol derivatives, being quite close to EDTA-Na2.

[3] = Fe^2+ chelation assay (ferrozine competition)
Method: In the protocol used for evaluating the Fe^2+ chelating ability of the compounds, the absorbances of the solutions were determined at λ = 562 nm, against a blank sample. The method was adapted from the initial report of Benzie and Strain et al., which was previously reported by our group. Using Equation (5), we calculated the iron chelation capacities of the 5a–d and 6a–d compounds:(5) iron chelation (%)=control absorbance−sample absorbance/control absorbance×100
The chelating capacity of the tested compounds of Fe^2+ was evaluated based on their competition for Fe^2+ with ferrozine.

[4] = system: normal human foreskin fibroblasts (BJ); assay: Cytotoxicity, Alamar blue assay, BJ cells; assay type: cell-based; settings: Homo sapiens, Fibroblast; 24 h exposure, Alamar blue
Description: (§1) Normal human foreskin (BJ) fibroblasts and two types of cancer cells, namely A549 (lung adenocarcinoma) and LNCaP (prostate carcinoma) purchased from American Type Culture Collection (Manassas, VA, USA), were used in the experiments. Each cell line was maintained in a different culture medium, depending on the metabolic necessities of the cells. BJ cells were maintained in Dulbecco’s modified Eagle’s medium (DMEM) with low glucose. A549 cells were maintained in DMEM with high glucose […], while LNCaP cells were grown in Roswell Park Memorial Institute (RPMI) 1640 medium with high glucose (5 g/L). All media used were supplemented with 10% fetal bovine serum (FBS) and were refreshed every two days. Cells were used in experiments or subcultured when they reached 70–80% confluence.
(§2) In 100 µL in 96-well plates, a number of 30,000 LNCaP cells, 15,000 A549 cells, and 7500 normal (BJ) cells were seeded. Because the cells have different sizes and volumes, the purpose of the different seedings was to achieve a confluency of 70–80% after 24 h. All types of cells were further exposed to the synthesized compounds (5a–d and 6a–d) for 24 h, at a concentration ranging from 12.5 to 100 µg/mL. Post-exposure, the media were removed, and the cells were washed with phosphate buffer saline (PBS). Their viability was evaluated using Alamar blue (AB) assay as previously described. Briefly, the cells were incubated with a 200 µM resazurin solution for 4 h. Using a Synergy 2 multi-mode microplate reader, we measured the fluorescence. The measurement was performed at λexcitation = 530/25 nm; λemission = 590/35 nm. We conducted the experiments using three biological replicates, each one including 6 technical replicates. As negative controls (NC), cells exposed to culture medium containing 0.2% DMSO were used. Compared to the NC (100%), the results were expressed as relative values. We used IC50 values for the potency evaluation, and calculated them for each cell line, using the dose-effect curves obtained by fitting the experimental data with a 4-parameter logistic curve.
(§3) Mean values ± standard deviation (SD) values of at least three biological replicates were used to calculate experimental data. One-way analysis of variance (ANOVA) with a post hoc Holm–Sidak test was used to statistically examine the data. Using SigmaPlot 11.0 software (Systat, Software Inc., Chicago, IL, USA), we performed the graphical display and data analysis. From a statistical point of view, the results were considered different, at values of p < 0.05.

[5] = system: A549 (lung adenocarcinoma) cells; assay: Cytotoxicity, Alamar blue assay, A549 cells; assay type: cell-based; settings: Homo sapiens, 24 h exposure
Description: as §1, §2, §3

[6] = system: LNCaP (prostate carcinoma) cells; assay: Cytotoxicity, Alamar blue assay, LNCaP cells; assay type: cell-based; settings: Homo sapiens, 24 h exposure
Description: as §1, §2, §3

[7] = DPPH˙ radical scavenging assay
Method: (§4) The stock solutions (1 mg/mL) of the tested compounds and the controls were obtained, by dissolving the substances in dimethyl sulfoxide (DMSO). Using Jasco V-530, an UV-VIS spectrophotometer (Jasco International Co., Ltd., Tokyo, Japan), we performed the colorimetric determinations in low-volume single-use 10 mm width cuvettes.
(§5) The assays were performed in triplicate and the results are presented as averages for each assay.
The DPPH˙ radical scavenging assay is based on the transfer of one hydrogen from the analyzed compound to the violet stable free radical DPPH˙ (2,2-diphenyl-1-picrylhydrazyl), as we convert it into a yellow compound. The absorbance of the reagent mixed with samples presented inversely proportional values to the amount of DPPH˙ neutralized. The absorbance of the reagent was measured at λ = 517 nm, according to our previous reports. The assay was made in the presence of various concentrations of samples. The used protocol is based on the report of Brand-Williams et al..

[8] = ABTS˙+ radical scavenging assay
Method: as §4, §5

SMILES: O=C(O)c1cc(O)ccc1O [Gentisic acid, reference compound]
% of NO˙ Scavenged [1]: 48.14%

SMILES: O=C([O-])CN(CCN(CC(=O)[O-])CC(=O)O)CC(=O)O.[Na+].[Na+] [EDTA-Na2, reference compound]
Cupric ions Chelation Capacity (%) ([2]; 3.36 µg/mL): 10.39%
Cupric ions Chelation Capacity (%) ([2]; 8.40 µg/mL): 22.68%
Cupric ions Chelation Capacity (%) ([2]; 16.80 µg/mL): 44.51%
Ferrous ions Chelation Capacity (%) ([3]; 17.70 µg/mL): 1.32%
Ferrous ions Chelation Capacity (%) ([3]; 20.59 µg/mL): 20.59%
Ferrous ions Chelation Capacity (%) ([3]; 29.41 µg/mL): 42.89%
Ferrous ions Chelation Capacity (%) ([3]; 44.11 µg/mL): 95.10%
Ferrous ions Chelation Capacity (%) ([3]; 58.82 µg/mL): + (+ represents more than 95%)
Ferrous ions Chelation Capacity (%) ([3]; 88.23 µg/mL): + (+ represents more than 95%)
Ferrous ions Chelation Capacity (%) ([3]; 117.64 µg/mL): + (+ represents more than 95%)
Ferrous ions Chelation Capacity (%) ([3]; 257.46 µg/mL): + (+ represents more than 95%)
Ferrous ions Chelation Capacity (%) ([3]; 343.28 µg/mL): + (+ represents more than 95%)

SMILES: COc1cccc2c1C(=O)c1c(O)c3c(c(O)c1C2=O)C[C@@](O)(C(=O)CO)C[C@@H]3O[C@H]1C[C@H](N)[C@H](O)[C@H](C)O1 [Doxorubicin, reference compound]
IC50 [4]: > 7.5 µg/mL
IC50 [5]: 0.54 µg/mL
IC50 [6]: 0.74 µg/mL

IC50 [7]: 18.7 µM
IC50 (DPPH˙ scavenging) [7]: 4.68 µg/mL (≈ 18.7 µM)
IC50 [8]: 18.6 µM
SMILES: Cc1c(C)c2c(c(C)c1O)CCC(C)(C(=O)O)O2 (stereo not shown) [Trolox, reference compound]
% of DPPH˙ Scavenging ([7]; 1.25 µg/mL): 17.01%
% of DPPH˙ Scavenging ([7]; 2.5 µg/mL): 28.53%
% of DPPH˙ Scavenging ([7]; 3.75 µg/mL): 40.42%
% of DPPH˙ Scavenging ([7]; 5 µg/mL): 53.87%
% of DPPH˙ Scavenging ([7]; 7.5 µg/mL): 75.85%
% of DPPH˙ Scavenging ([7]; 10 µg/mL): 94.85%
% of DPPH˙ Scavenging ([7]; 12.5 µg/mL): + (+ represents more than 95%)
% of DPPH˙ Scavenging ([7]; 15 µg/mL): + (+ represents more than 95%)
% of ABTS˙^+ Scavenging ([8]; 0.83 µg/mL): 38.66%
% of ABTS˙^+ Scavenging ([8]; 1.67 µg/mL): 53.16%
% of ABTS˙^+ Scavenging ([8]; 3.33 µg/mL): 66.54%
% of ABTS˙^+ Scavenging ([8]; 4.99 µg/mL): 94.57%
% of ABTS˙^+ Scavenging ([8]; 6.66 µg/mL): + (+ represents more than 95%)
% of ABTS˙^+ Scavenging ([8]; 9.99 µg/mL): + (+ represents more than 95%)
% of ABTS˙^+ Scavenging ([8]; 13.32 µg/mL): + (+ represents more than 95%)

IC50 [7]: 16.1 µM
IC50 (DPPH˙ scavenging) [7]: 2.83 µg/mL (≈ 16.1 µM)
IC50 [8]: 11.4 µM
SMILES: O=C1O[C@H]([C@@H](O)CO)C(O)=C1O [Ascorbic acid, reference compound]
% of DPPH˙ Scavenging ([7]; 1.25 µg/mL): 35.11%
% of DPPH˙ Scavenging ([7]; 2.5 µg/mL): 47.45%
% of DPPH˙ Scavenging ([7]; 3.75 µg/mL): 55.71%
% of DPPH˙ Scavenging ([7]; 5 µg/mL): 64.21%
% of DPPH˙ Scavenging ([7]; 7.5 µg/mL): 79.16%
% of DPPH˙ Scavenging ([7]; 10 µg/mL): 94.39%
% of DPPH˙ Scavenging ([7]; 12.5 µg/mL): + (+ represents more than 95%)
% of DPPH˙ Scavenging ([7]; 15 µg/mL): + (+ represents more than 95%)
% of ABTS˙^+ Scavenging ([8]; 0.83 µg/mL): 60.97%
% of ABTS˙^+ Scavenging ([8]; 1.67 µg/mL): 73.24%
% of ABTS˙^+ Scavenging ([8]; 3.33 µg/mL): 87.73%
% of ABTS˙^+ Scavenging ([8]; 4.99 µg/mL): + (+ represents more than 95%)
% of ABTS˙^+ Scavenging ([8]; 6.66 µg/mL): + (+ represents more than 95%)
% of ABTS˙^+ Scavenging ([8]; 9.99 µg/mL): + (+ represents more than 95%)
% of ABTS˙^+ Scavenging ([8]; 13.32 µg/mL): + (+ represents more than 95%)
